Source: patent US20160242416A1, “FUNGICIDAL ISOXAZOLINE CARBINOLS” (E I DU PONT DE NEMOURS AND COMPANY, priority 2015, published 2016)

Assays:
[1] = system: Puccinia recondita f sp. tritici; assay: Test F: wheat leaf rust, preventive spray on wheat seedlings; details: 10 ppm; wheat leaf rust; 100 = 100% disease control, 0 = no control
From the text: (§1) General protocol for preparing test solutions for Tests A-G: the test compounds were first dissolved in acetone in an amount equal to 3% of the final volume and then suspended at the desired concentration (in ppm) in acetone and purified water (50/50 mix by volume) containing 250 ppm of the surfactant PEG400 (polyhydric alcohol esters). The resulting test suspensions were then used in Tests A-G. Compounds were sprayed at a concentration of 50 ppm (*) or 10 ppm to the point of run-off on the test plants, the equivalent of a rate of 200 g/ha or 40 g/ha, respectively.
The test solution was sprayed to the point of run-off on wheat seedlings. The following day the seedlings were inoculated with a spore suspension of Puccinia recondita f sp. tritici; (the causal agent of wheat leaf rust) and incubated in a saturated atmosphere at 20° C. for 24 h, and then moved to a growth chamber at 20° C. for 6 days, after which time visual disease ratings were made.
A dash (-) indicates no test results. Compounds with an asterisks (*) were applied at a concentration of 50 ppm, otherwise test solutions were applied at 10 ppm.

[2] = system: Erysiphe graminis f sp. tritici; assay: Test G: wheat powdery mildew, preventive spray on wheat seedlings; details: 10 ppm; wheat powdery mildew; 100 = 100% disease control, 0 = no control
Stagonospora nodorum = assay: Test D: wheat glume blotch, preventive spray on wheat seedlings; details: 10 ppm; wheat glume blotch; 100 = 100% disease control, 0 = no control
Zymoseptoria tritici = assay: Test E: wheat leaf blotch, preventive spray on wheat seedlings; details: 10 ppm; wheat leaf blotch; 100 = 100% disease control, 0 = no control
From the text: as §1
The test solution was sprayed to the point of run-off on wheat seedlings. The following day the seedlings were inoculated with a spore suspension of Zymoseptoria tritici (the causal agent of wheat leaf blotch) and incubated in a saturated atmosphere at 24° C. for 48 h, and then moved to a growth chamber at 20° C. for 17 days, after which time visual disease ratings were made.
Compounds with an asterisks (*) were applied at a concentration of 50 ppm, otherwise test solutions were applied at 10 ppm.

Botrytis cinerea = assay: Test B: gray mold, preventive spray on tomato seedlings; details: 10 ppm; gray mold on tomato; 100 = 100% disease control, 0 = no control

Q: Which results are given for `OC(Cn1cncn1)(C1=NOC(Cn2cc(Br)cn2)C1)c1ccc(Cl)cc1` (single isomer, unassigned) [Compound 37]?
A: Test F rating (% disease control) [1]: 94%; Test G rating (% disease control) [2]: 99%; Test D rating (% disease control) (Stagonospora nodorum): 0%; Test E rating (% disease control) (Zymoseptoria tritici): 0%; Test B rating (% disease control) (Botrytis cinerea): 0%

Q: Which “Test F rating (% disease control)” value [1] does the source give for `OC(Cn1cncn1)(C1=NOC(c2ccc(-n3cc(Br)cn3)cc2)C1)c1ccc(Cl)cc1` (single isomer, unassigned) [Compound 6] here?
A: Its value is 0%.

Q: What about the “Test G rating (% disease control)” value [2] of the same compound?
A: The value was 91%.

Q: What about the “Test D rating (% disease control)” value (Stagonospora nodorum) of the same compound?
A: The value was 0%.

Q: What about the “Test E rating (% disease control)” value (Zymoseptoria tritici) of the same compound?
A: Its value is 0%.

Q: What about the “Test B rating (% disease control)” value (Botrytis cinerea) of the same compound?
A: The value was 0%.

Q: What does the source list for `CC(C)(C)C(O)(Cn1cncn1)C1=NOC(COc2ccc(F)cc2)C1` (single isomer, unassigned) [Compound 79]?
A: Test F rating (% disease control) [1]: 100%; Test G rating (% disease control) [2]: 99%; Test D rating (% disease control) (Stagonospora nodorum): 100%; Test E rating (% disease control) (Zymoseptoria tritici): 21%; Test B rating (% disease control) (Botrytis cinerea): 97%

Q: Which results are given for `CCC(C)(C)C(O)(Cn1cncn1)C1=NOC(COc2ccc(Br)cc2)C1` (single isomer, unassigned) [Compound 12]?
A: Test F rating (% disease control) [1]: 99%; Test G rating (% disease control) [2]: 96%; Test D rating (% disease control) (Stagonospora nodorum): 68%; Test E rating (% disease control) (Zymoseptoria tritici): 57%; Test B rating (% disease control) (Botrytis cinerea): 0%

Q: Which “Test F rating (% disease control)” value [1] does the source give for `CC(C)(C)C(O)(Cn1cncn1)C1=NOC(Cc2ccccc2)C1` (single isomer, unassigned) [Compound 86] here?
A: Its value is 74%.

Q: And the “Test G rating (% disease control)” value [2]?
A: Its value is 98%.

Q: What about the “Test D rating (% disease control)” value (Stagonospora nodorum) of the same compound?
A: Its value is 99%.

Q: And the “Test E rating (% disease control)” value (Zymoseptoria tritici)?
A: The value was 1%.

Q: And the “Test B rating (% disease control)” value (Botrytis cinerea)?
A: Its value is 72%.

Q: With `CC(C)(C)C(O)(Cn1cncn1)C1=NOC(Cc2ccc(Cl)c(Cl)c2)C1` (single isomer, unassigned) [Compound 22] as the compound, how does the “Test F rating (% disease control)” value [1] read?
A: The value was 100%.

Q: What about the “Test G rating (% disease control)” value [2] of the same compound?
A: The value was 99%.

Q: And the “Test D rating (% disease control)” value (Stagonospora nodorum)?
A: Its value is 96%.

Q: And the “Test E rating (% disease control)” value (Zymoseptoria tritici)?
A: The value was 29%.

Q: And the “Test B rating (% disease control)” value (Botrytis cinerea)?
A: Its value is 0%.

Q: `CC(C)(C)C(O)(Cn1cncn1)C1=NOC(COc2ccc(I)cc2)C1` (single isomer, unassigned) [Compound 184] was tested. Which “Test F rating (% disease control)” value [1] did it give?
A: Its value is 100%.

Q: What about the “Test G rating (% disease control)” value [2] of the same compound?
A: The value was 100%.

Q: What about the “Test D rating (% disease control)” value (Stagonospora nodorum) of the same compound?
A: Its value is 100%.

Q: And the “Test E rating (% disease control)” value (Zymoseptoria tritici)?
A: Its value is 94%.

Q: And the “Test B rating (% disease control)” value (Botrytis cinerea)?
A: The value was 44%.

Q: Which “Test F rating (% disease control)” value [1] does the source give for `CC(C)(C)C(O)(Cn1cncn1)C1=NOC(Cn2cc(Br)cn2)C1` (single isomer, unassigned) [Compound 41] here?
A: Its value is 41%.

Q: And the “Test G rating (% disease control)” value [2]?
A: Its value is 90%.

Q: And the “Test D rating (% disease control)” value (Stagonospora nodorum)?
A: Its value is 0%.

Q: What about the “Test E rating (% disease control)” value (Zymoseptoria tritici) of the same compound?
A: The value was 0%.

Q: What about the “Test B rating (% disease control)” value (Botrytis cinerea) of the same compound?
A: The value was 0%.

Q: With `OC(Cn1cncn1)(C1=NOC(c2ccc(Cl)cc2)C1)c1ccc(Br)cc1` (single isomer, unassigned) [Compound 180] as the compound, how does the “Test F rating (% disease control)” value [1] read?
A: Its value is 100%.

Q: And the “Test G rating (% disease control)” value [2]?
A: Its value is 100%.

Q: And the “Test D rating (% disease control)” value (Stagonospora nodorum)?
A: Its value is 99%.

Q: And the “Test E rating (% disease control)” value (Zymoseptoria tritici)?
A: Its value is 1%.

Q: What about the “Test B rating (% disease control)” value (Botrytis cinerea) of the same compound?
A: The value was 0%.

Q: Which “Test F rating (% disease control)” value [1] does the source give for `CC(C)(C)C(O)(Cn1cncn1)C1=NOC(COc2ncc(Cl)cn2)C1` (single isomer, unassigned) [Compound 99] here?
A: Its value is 95%.

Q: What about the “Test G rating (% disease control)” value [2] of the same compound?
A: The value was 96%.

Q: And the “Test D rating (% disease control)” value (Stagonospora nodorum)?
A: Its value is 63%.

Q: And the “Test E rating (% disease control)” value (Zymoseptoria tritici)?
A: The value was 0%.

Q: What about the “Test B rating (% disease control)” value (Botrytis cinerea) of the same compound?
A: Its value is 0%.

Q: Which “Test F rating (% disease control)” value [1] does the source give for `OC(Cn1cncn1)(C1=NOC(c2ccc(Cl)cc2)C1)C1CCCCC1` (single isomer, unassigned) [Compound 196] here?
A: Its value is 100%.

Q: What about the “Test G rating (% disease control)” value [2] of the same compound?
A: The value was 100%.

Q: What about the “Test D rating (% disease control)” value (Stagonospora nodorum) of the same compound?
A: The value was 99%.

Q: What about the “Test E rating (% disease control)” value (Zymoseptoria tritici) of the same compound?
A: Its value is 12%.

Q: What about the “Test B rating (% disease control)” value (Botrytis cinerea) of the same compound?
A: Its value is 0%.

Q: With `CC1(C(O)(Cn2cncn2)C2=NOC(c3ccc(Cl)cc3)C2)CC1` (single isomer, unassigned) [Compound 127] as the compound, how does the “Test F rating (% disease control)” value [1] read?
A: Its value is 98%.

Q: And the “Test G rating (% disease control)” value [2]?
A: The value was 98%.

Q: What about the “Test D rating (% disease control)” value (Stagonospora nodorum) of the same compound?
A: The value was 98%.

Q: What about the “Test E rating (% disease control)” value (Zymoseptoria tritici) of the same compound?
A: The value was 9%.

Q: What about the “Test B rating (% disease control)” value (Botrytis cinerea) of the same compound?
A: The value was 0%.

Q: Which “Test F rating (% disease control)” value [1] does the source give for `OC(Cn1cncn1)(C1=NOC(COc2ccc3c(c2)OCO3)C1)c1ccc(Cl)cc1` (single isomer, unassigned) [Compound 44] here?
A: The value was 0%.

Q: And the “Test G rating (% disease control)” value [2]?
A: Its value is 64%.

Q: What about the “Test D rating (% disease control)” value (Stagonospora nodorum) of the same compound?
A: Its value is 28%.

Q: And the “Test E rating (% disease control)” value (Zymoseptoria tritici)?
A: The value was 2%.

Q: And the “Test B rating (% disease control)” value (Botrytis cinerea)?
A: Its value is 0%.

Q: How did the “Test F rating (% disease control)” value [1] turn out when `CC(C)(C)C(O)(Cn1cncn1)C1=NOC(COc2ccc(F)cc2)C1` (single isomer, unassigned) [Compound 80] was run?
A: Its value is 100%.

Q: And the “Test G rating (% disease control)” value [2]?
A: Its value is 99%.

Q: And the “Test D rating (% disease control)” value (Stagonospora nodorum)?
A: The value was 100%.

Q: And the “Test E rating (% disease control)” value (Zymoseptoria tritici)?
A: Its value is 1%.

Q: And the “Test B rating (% disease control)” value (Botrytis cinerea)?
A: The value was 82%.

Q: What does the source list for `CC(C)(C)C(O)(Cn1cncn1)C1=NOC(Cc2ccccc2)C1` (single isomer, unassigned) [Compound 87]?
A: Test F rating (% disease control) [1]: 99%; Test G rating (% disease control) [2]: 98%; Test D rating (% disease control) (Stagonospora nodorum): 99%; Test E rating (% disease control) (Zymoseptoria tritici): 1%; Test B rating (% disease control) (Botrytis cinerea): 83%

Q: Which “Test F rating (% disease control)” value [1] does the source give for `OC(Cn1cncn1)(C1=NOC(Cn2cc(Br)cn2)C1)c1ccc(Cl)cc1` (single isomer, unassigned) [Compound 38] here?
A: Its value is 55%.

Q: And the “Test G rating (% disease control)” value [2]?
A: The value was 72%.

Q: And the “Test D rating (% disease control)” value (Stagonospora nodorum)?
A: Its value is 0%.

Q: And the “Test E rating (% disease control)” value (Zymoseptoria tritici)?
A: The value was 1%.

Q: And the “Test B rating (% disease control)” value (Botrytis cinerea)?
A: The value was 0%.

Q: `CCCCC(O)(Cn1cncn1)C1=NOC(c2ccc(Cl)cc2)C1` (single isomer, unassigned) [Compound 155] was tested. Which “Test F rating (% disease control)” value [1] did it give?
A: The value was 100%.

Q: And the “Test G rating (% disease control)” value [2]?
A: The value was 100%.

Q: And the “Test D rating (% disease control)” value (Stagonospora nodorum)?
A: Its value is 100%.

Q: And the “Test E rating (% disease control)” value (Zymoseptoria tritici)?
A: Its value is 2%.

Q: And the “Test B rating (% disease control)” value (Botrytis cinerea)?
A: Its value is 0%.

Q: With `CSc1ccc(C2CC(C(O)(Cn3cncn3)c3ccc(Cl)cc3)=NO2)cc1` (single isomer, unassigned) [Compound 108] as the compound, how does the “Test F rating (% disease control)” value [1] read?
A: Its value is 78%.

Q: And the “Test G rating (% disease control)” value [2]?
A: The value was 64%.

Q: What about the “Test D rating (% disease control)” value (Stagonospora nodorum) of the same compound?
A: The value was 0%.

Q: And the “Test E rating (% disease control)” value (Zymoseptoria tritici)?
A: The value was 25%.

Q: What about the “Test B rating (% disease control)” value (Botrytis cinerea) of the same compound?
A: Its value is 0%.

Q: How did the “Test F rating (% disease control)” value [1] turn out when `OC(Cn1cncn1)(C1=NOC(COC2CCCCC2)C1)c1ccc(Cl)cc1` (single isomer, unassigned) [Compound 90] was run?
A: Its value is 0%.

Q: What about the “Test G rating (% disease control)” value [2] of the same compound?
A: Its value is 64%.

Q: And the “Test D rating (% disease control)” value (Stagonospora nodorum)?
A: Its value is 59%.

Q: What about the “Test E rating (% disease control)” value (Zymoseptoria tritici) of the same compound?
A: Its value is 0%.

Q: And the “Test B rating (% disease control)” value (Botrytis cinerea)?
A: The value was 0%.

Q: For `OC(Cn1cncn1)(C1=NOC(c2ccc(Br)cc2)C1)c1ccc(Cl)cc1` (single isomer, unassigned) [Compound 178], which “Test F rating (% disease control)” value [1] is on record?
A: Its value is 100%.

Q: What about the “Test G rating (% disease control)” value [2] of the same compound?
A: The value was 100%.

Q: And the “Test D rating (% disease control)” value (Stagonospora nodorum)?
A: Its value is 99%.

Q: And the “Test E rating (% disease control)” value (Zymoseptoria tritici)?
A: Its value is 91%.

Q: What about the “Test B rating (% disease control)” value (Botrytis cinerea) of the same compound?
A: The value was 0%.

Q: How did the “Test F rating (% disease control)” value [1] turn out when `CCC(C)(C)C(O)(Cn1cncn1)C1=NOC(COc2ccc(Cl)cc2)C1` (single isomer, unassigned) [Compound 193] was run?
A: The value was 99%.

Q: And the “Test G rating (% disease control)” value [2]?
A: Its value is 97%.

Q: What about the “Test D rating (% disease control)” value (Stagonospora nodorum) of the same compound?
A: Its value is 93%.

Q: And the “Test E rating (% disease control)” value (Zymoseptoria tritici)?
A: The value was 22%.

Q: What about the “Test B rating (% disease control)” value (Botrytis cinerea) of the same compound?
A: The value was 9%.

Q: What does the source list for `OC(Cn1cncn1)(C1=NOC(COc2ccccc2)C1)c1ccc(Cl)cc1` (single isomer, unassigned) [Compound 144]?
A: Test F rating (% disease control) [1]: 100%; Test G rating (% disease control) [2]: 99%; Test D rating (% disease control) (Stagonospora nodorum): 99%; Test E rating (% disease control) (Zymoseptoria tritici): 17%; Test B rating (% disease control) (Botrytis cinerea): 0%
